Data reported in patent publication US20200062767A1, “SUBSTITUTED PYRROLIDINYL AND PIPERIDINYL PYRAZOLOPYRIDAZINE DERIVATIVES HAVING MULTIMODAL ACTIVITY AGAINST PAIN” (ESTEVE PHARMACEUTICALS, S.A., priority 2017, published 2020).

Experiments:
[1] = target: Human norepinephrine transporter (NET) (Homo sapiens, UniProt P23975); experiment: Binding assay to human norepinephrine transporter (NET); settings: expressed as Ki; [3H]-Nisoxetin, human NET enriched membranes
Procedure: Binding Assay to Human Norepinephrine Transporter (NET).
Human norepinephrine transporter (NET) enriched membranes (5 μg) were incubated with 5 nM of radiolabeled [3H]-Nisoxetin in assay buffer containing 50 mM Tris-HCl, 120 mM NaCl, 5 mM KCl, pH 7.4.
(§1) NSB (non specific binding) was measured by adding 10 μM of desipramine. The binding of the test compound was measured at five different concentrations. After 60 min incubation at 4° C., binding reaction was terminated by filtering through Multiscreen GF/C (Millipore) presoaked in 0.5% polyethyleneimine in Vacuum Manifold Station, followed by 3 washes with ice-cold filtration buffer containing 50 mM Tris-HCl, 0.9% NaCl, pH 7.4.
Filter plates were dried at 60° C. for 1 hour and 30 μL of scintillation cocktail were added to each well before radioactivity reading.
Readings were performed in a Trilux 1450 Microbeta radioactive counter (Perkin Elmer).

[2] = target: Human α2δ−1 subunit of Cav2.2 calcium channel (Homo sapiens, UniProt P54289); experiment: Human α2δ−1 subunit of Cav2.2 calcium channel assay; settings: expressed as Ki; [3H]-Gabapentin, human α2δ−1 enriched membranes; read-out: Binding α2δ-1
Human α2δ−1 subunit of Cav2.2 calcium channel, sequence (P54289 25-1103): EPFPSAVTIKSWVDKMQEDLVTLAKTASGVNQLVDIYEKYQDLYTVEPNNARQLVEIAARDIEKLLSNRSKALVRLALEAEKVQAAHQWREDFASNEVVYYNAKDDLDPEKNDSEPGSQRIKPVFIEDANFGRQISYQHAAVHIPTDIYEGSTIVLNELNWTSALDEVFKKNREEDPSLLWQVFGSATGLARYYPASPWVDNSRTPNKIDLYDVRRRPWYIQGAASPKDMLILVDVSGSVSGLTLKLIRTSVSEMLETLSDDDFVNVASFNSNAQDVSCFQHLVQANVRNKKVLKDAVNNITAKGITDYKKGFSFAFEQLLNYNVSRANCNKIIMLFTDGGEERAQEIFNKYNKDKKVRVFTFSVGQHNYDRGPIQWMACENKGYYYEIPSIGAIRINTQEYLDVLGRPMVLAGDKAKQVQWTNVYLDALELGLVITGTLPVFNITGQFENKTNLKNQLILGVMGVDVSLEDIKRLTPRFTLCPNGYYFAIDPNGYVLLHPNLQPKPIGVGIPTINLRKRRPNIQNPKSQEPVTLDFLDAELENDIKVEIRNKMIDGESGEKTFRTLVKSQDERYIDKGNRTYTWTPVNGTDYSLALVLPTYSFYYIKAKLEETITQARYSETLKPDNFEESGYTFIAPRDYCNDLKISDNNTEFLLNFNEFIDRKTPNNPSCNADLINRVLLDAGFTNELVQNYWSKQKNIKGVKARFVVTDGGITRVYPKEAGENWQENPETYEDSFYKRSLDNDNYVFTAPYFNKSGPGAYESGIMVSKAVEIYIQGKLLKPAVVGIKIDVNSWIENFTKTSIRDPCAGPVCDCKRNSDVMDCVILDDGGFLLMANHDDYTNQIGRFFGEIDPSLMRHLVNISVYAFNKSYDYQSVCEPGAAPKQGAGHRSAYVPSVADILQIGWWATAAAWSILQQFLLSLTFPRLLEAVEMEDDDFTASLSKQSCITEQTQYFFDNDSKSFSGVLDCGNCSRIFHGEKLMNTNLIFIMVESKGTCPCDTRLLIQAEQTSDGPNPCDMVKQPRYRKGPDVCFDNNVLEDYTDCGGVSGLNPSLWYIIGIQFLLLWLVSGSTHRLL
Procedure: as §1, with “Human α2δ−1 Subunit of Cav2.2 Calcium Channel Assay Human α2δ−1 enriched membranes (2.5 μg) were incubated with 15 nM of radiolabeled [3H]-Gabapentin in assay buffer containing Hepes-KOH 10 mM, pH 7.4. NSB” for “NSB”, “pregabalin.” for “of desipramine.”, “27°” for “4°”, “Tris-HCl,” for “Tris-HCl, 0.9% NaCl,”
Filter plates were dried at 60° C. for 1 hour and 30 μL of scintillation cocktail were added to each well before radioactivity reading. Readings were performed in a Trilux 1450 Microbeta radioactive counter (Perkin Elmer).

Human norepinephrine transporter (NET), sequence (P23975 whole entry): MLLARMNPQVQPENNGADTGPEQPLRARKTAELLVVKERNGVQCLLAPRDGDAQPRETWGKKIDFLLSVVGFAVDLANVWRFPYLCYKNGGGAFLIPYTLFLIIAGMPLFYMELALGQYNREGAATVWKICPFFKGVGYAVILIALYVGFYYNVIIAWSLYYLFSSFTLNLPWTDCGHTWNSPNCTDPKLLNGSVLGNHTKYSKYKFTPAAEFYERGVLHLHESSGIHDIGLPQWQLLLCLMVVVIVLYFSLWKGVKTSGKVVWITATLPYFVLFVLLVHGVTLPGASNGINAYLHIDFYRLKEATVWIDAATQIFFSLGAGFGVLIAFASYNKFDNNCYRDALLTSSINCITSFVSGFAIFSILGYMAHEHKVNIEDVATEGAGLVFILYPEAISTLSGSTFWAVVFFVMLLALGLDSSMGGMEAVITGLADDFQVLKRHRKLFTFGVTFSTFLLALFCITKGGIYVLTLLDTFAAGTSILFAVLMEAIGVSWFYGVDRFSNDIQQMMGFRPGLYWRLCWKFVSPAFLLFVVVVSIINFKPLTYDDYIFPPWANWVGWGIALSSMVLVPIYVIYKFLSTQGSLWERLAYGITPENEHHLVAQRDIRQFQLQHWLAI

Compound	Ki [1]	Ki [2]
CCOc1ccc(-n2nc3c(N4CC[C@H](N(C)Cc5cccc(O)c5)C4)nnc(C)c3c2C)c(F)c1 [Example 15, (S)-3-(((1-(2-(4-Ethoxy-2-fluorophenyl)-3,4-dimethyl-2H-pyrazolo[3,4-d]pyridazin-7-yl)pyrrolidin-3-yl)(methyl)amino)methyl)phenol]	≥ 1 µM	< 0.5 µM
CCOc1ccc(-n2nc3c(N4CC[C@H](NC(=O)Cc5cccnc5)C4)nnc(C)c3c2C)c(F)c1 [Example 19, (S)-N-(1-(2-(4-ethoxy-2-fluorophenyl)-3,4-dimethyl-2H-pyrazolo[3,4-d]pyridazin-7-yl)pyrrolidin-3-yl)-2-(pyridin-3-yl)acetamide]	≥ 1 µM	< 0.5 µM
CCOc1ccc(-n2nc3c(N4CC[C@H](NCCc5ccccc5)C4)nnc(C)c3c2C)c(F)c1 [Example 2, (S)-1-(2-(4-ethoxy-2-fluorophenyl)-3,4-dimethyl-2H-pyrazolo[3,4-d]pyridazin-7-yl)-N-phenethylpyrrolidin-3-amine]	0.5 to 1 µM	< 0.5 µM
CCOc1ccc(-n2nc3c(N4CC[C@H](NCc5ccncc5)C4)nnc(C)c3c2C)c(F)c1 [Example 12, (S)-1-(2-(4-ethoxy-2-fluorophenyl)-3,4-dimethyl-2H-pyrazolo[3,4-d]pyridazin-7-yl)-N-(pyridin-4-ylmethyl)pyrrolidin-3-amine]	≥ 1 µM	< 0.5 µM
CCOc1ccc(-n2nc3c(N4CC[C@@H](NCc5cccc(O)c5)C4)nnc(C)c3c2C)c(F)c1 [Example 8, (R)-3-(((1-(2-(4-ethoxy-2-fluorophenyl)-3,4-dimethyl-2H-pyrazolo[3,4-d]pyridazin-7-yl)pyrrolidin-3-yl)amino)methyl)phenol]	0.1 to 0.5 µM	< 0.5 µM
CCOc1ccc(-n2nc3c(N4CC[C@H](NCc5ccccc5)C4)nnc(C)c3c2C)c(F)c1 [Example 1, (S)-N-Benzyl-1-(2-(4-ethoxy-2-fluorophenyl)-3,4-dimethyl-2H-pyrazolo[3,4-d]pyridazin-7-yl)pyrrolidin-3-amine]	0.1 to 0.5 µM	< 0.5 µM
CCOc1ccc(-n2nc3c(N4CC[C@H](NCc5cccnc5)C4)nnc(C)c3c2C)c(F)c1 [Example 11, (S)-1-(2-(4-ethoxy-2-fluorophenyl)-3,4-dimethyl-2H-pyrazolo[3,4-d]pyridazin-7-yl)-N-(pyridin-3-ylmethyl)pyrrolidin-3-amine]	0.5 to 1 µM	< 0.5 µM
CCOc1ccc(-n2nc3c(N4CC[C@H](NCc5ccccc5O)C4)nnc(C)c3c2C)c(F)c1 [Example 9, (S)-2-(((1-(2-(4-ethoxy-2-fluorophenyl)-3,4-dimethyl-2H-pyrazolo[3,4-d]pyridazin-7-yl)pyrrolidin-3-yl)amino)methyl)phenol]	0.1 to 0.5 µM	< 0.5 µM
CCOc1ccc(-n2nc3c(N4CC[C@H](NCCc5ccc(F)cc5)C4)nnc(C)c3c2C)c(F)c1 [Example 5, (S)-1-(2-(4-ethoxy-2-fluorophenyl)-3,4-dimethyl-2H-pyrazolo[3,4-d]pyridazin-7-yl)-N-(4-fluorophenethyl)pyrrolidin-3-amine]	≥ 1 µM	< 0.5 µM
CCOc1ccc(-n2nc3c(N4CC[C@H](NCc5cccc(OC)c5)C4)nnc(C)c3c2C)c(F)c1 [Example 6, (S)-1-(2-(4-ethoxy-2-fluorophenyl)-3,4-dimethyl-2H-pyrazolo[3,4-d]pyridazin-7-yl)-N-(3-methoxybenzyl)pyrrolidin-3-amine]	0.5 to 1 µM	< 0.5 µM
CCOc1ccc(-n2nc3c(N4CC[C@H](NC(=O)Cc5ccccn5)C4)nnc(C)c3c2C)c(F)c1 [Example 18, (S)-N-(1-(2-(4-Ethoxy-2-fluorophenyl)-3,4-dimethyl-2H-pyrazolo[3,4-d]pyridazin-7-yl)pyrrolidin-3-yl)-2-(pyridin-2-yl)acetamide]	≥ 1 µM	< 0.5 µM
CCOc1ccc(-n2nc3c(N4CC[C@H](NCc5cccc(O)c5)C4)nnc(C)c3c2C)c(F)c1 [Example 3, (S)-3-(((1-(2-(4-ethoxy-2-fluorophenyl)-3,4-dimethyl-2H-pyrazolo[3,4-d]pyridazin-7-yl)pyrrolidin-3-yl)amino)methyl)phenol]	0.1 to 0.5 µM	< 0.5 µM
CCOc1ccc(-n2nc3c(N4CCC[C@H](N(C)C)C4)nnc(C)c3c2C)c(F)c1 [Example 17, (S)-1-(2-(4-ethoxy-2-fluorophenyl)-3,4-dimethyl-2H-pyrazolo[3,4-d]pyridazin-7-yl)-N,N-dimethylpiperidin-3-amine]	≥ 1 µM	0.5 to 5 µM
CCOc1ccc(-n2nc3c(N4CC[C@H](NCc5cncc(F)c5)C4)nnc(C)c3c2C)c(F)c1 [Example 14, (S)-1-(2-(4-ethoxy-2-fluorophenyl)-3,4-dimethyl-2H-pyrazolo[3,4-d]pyridazin-7-yl)-N-((5-fluoropyridin-3-yl)methyl)pyrrolidin-3-amine]	≥ 1 µM	≥ 5 µM
CCOc1ccc(-n2nc3c(N4CC[C@H](N(C)Cc5ccccc5)C4)nnc(C)c3c2C)c(F)c1 [Example 16, (S)-N-benzyl-1-(2-(4-ethoxy-2-fluorophenyl)-3,4-dimethyl-2H-pyrazolo[3,4-d]pyridazin-7-yl)-N-methylpyrrolidin-3-amine]	0.5 to 1 µM	< 0.5 µM
CCOc1ccc(-n2nc3c(N4CC[C@H](NCc5ccccn5)C4)nnc(C)c3c2C)c(F)c1 [Example 4, (S)-1-(2-(4-ethoxy-2-fluorophenyl)-3,4-dimethyl-2H-pyrazolo[3,4-d]pyridazin-7-yl)-N-(pyridin-2-ylmethyl)pyrrolidin-3-amine]	≥ 1 µM	< 0.5 µM
CCOc1ccc(-n2nc3c(N4CC[C@@H](NCc5ccccc5)C4)nnc(C)c3c2C)c(F)c1 [Example 10, (R)-N-benzyl-1-(2-(4-ethoxy-2-fluorophenyl)-3,4-dimethyl-2H-pyrazolo[3,4-d]pyridazin-7-yl)pyrrolidin-3-amine]	0.1 to 0.5 µM	< 0.5 µM
CCOc1ccc(-n2nc3c(N4CC[C@H](NCc5ccc(F)c(F)c5)C4)nnc(C)c3c2C)c(F)c1 [Example 7, (S)-N-(3,4-difluorobenzyl)-1-(2-(4-ethoxy-2-fluorophenyl)-3,4-dimethyl-2H-pyrazolo[3,4-d]pyridazin-7-yl)pyrrolidin-3-amine]	< 0.1 µM	< 0.5 µM
CCOc1ccc(-n2nc3c(N4CC[C@H](NCc5ncccc5F)C4)nnc(C)c3c2C)c(F)c1 [Example 13, (S)-1-(2-(4-ethoxy-2-fluorophenyl)-3,4-dimethyl-2H-pyrazolo[3,4-d]pyridazin-7-yl)-N-((3-fluoropyridin-2-yl)methyl)pyrrolidin-3-amine]	0.5 to 1 µM	< 0.5 µM
